Results taken from patent US11919965B2, “Methods of treating multiple myeloma with bispecific anti-BCMA x anti-CD3 antibodies” (Regeneron Pharmaceuticals, Inc., priority 2019, dated 2024).

Columns and labels:
[1] = tested on: BCMA+ OPM-2-luciferase tumors; assay: Xenogenic tumor model, i.v. OPM-2-luciferase in PBMC-engrafted NSG mice, bioluminescence (Example 15); format: in vivo, mouse; settings: 0.4 mg/kg
Experimental: (§1) To determine the in vivo efficacy of anti-BCMA×anti-CD3 bispecific antibodies (Abs), a xenogenic tumor study was performed. On day 0, immunodeficient NOD.Cg-Prkdc^scidII2rg^tm1Wjl/SzJ (NSG) mice were intravenously administered 2×10^6 BCMA^+ OPM-2 human multiple myeloma tumor cells that were engineered to also express firefly luciferase (OPM-2-luciferase cells). On day 10, the mice were intraperitoneally injected with 4×10^6 human peripheral blood mononuclear cells (PBMC) from a normal, healthy donor. […] The mice were administered these Abs twice more on days 25 and 28, for a total of three doses. Tumor growth was assessed through day 61 by measuring tumor bioluminescence (BLI) in anesthetized animals. As a positive control, a group of mice (n=5) was given only OPM-2-luciferase cells, but not PBMC or antibody.
as §1, with “Implantation and measurement” for “To determine the in vivo efficacy”, “of” for “of anti-BCMA×anti-CD3 bispecific antibodies (Abs), a”, “tumors:” for “tumor study was performed.”, “NOD.Cg-Prkdc^scidII2rg^tm1Wkl/SzJ” for “NOD.Cg-Prkdc^scidII2rg^tm1Wjl/SzJ”
Measurement of xenogenic tumor growth: BLI imaging was used to measure tumor burden. Mice were injected IP with 150 mg/kg of the luciferase substrate D-luciferin suspended in PBS. Five minutes after this injection, BLI imaging of the mice was performed under isoflurane anesthesia using the Xenogen IVIS system. Image acquisition was carried out with the field of view at D, subject height of 1.5 cm, and medium binning level with automatic exposure time determined by the Living Image Software. BLI signals were extracted using Living Image software: regions of interest were drawn around each tumor mass and photon intensities were recorded as p/s/cm2/sr.

[2] = tested on: BCMA-expressing MOLP-8 multiple myeloma tumors; assay: Xenogenic tumor model, MOLP-8 + human PBMC s.c. in NSG mice, dose response (Example 13); format: in vivo, mouse
Experimental: To determine the in vivo efficacy of anti-BCMA×anti-CD3 bispecific antibodies (Abs), a xenogenic tumor study was performed. Immunodeficient NOD.Cg-Prkdc^scidII2rg^tm1Wjl/SzJ (NSG) mice were subcutaneously implanted with a mixture of 5×10^6 BCMA-expressing MOLP-8 human multiple myeloma tumor cells and 1×10^6 human peripheral blood mononuclear cells (PBMC) isolated from a normal, healthy donor. […] The mice were administered these Abs twice per week for a total of seven doses, and tumor growth was assessed over 56 days. While the BCMA+ MOLP-8 tumors grew similarly in the vehicle- and CD3-binding control-treated mice, both BCMA×CD3 Abs that were tested prevented the growth of tumors in a dose-dependent manner in vivo.
Implantation and measurement of xenogenic tumors: NSG mice were subcutaneously implanted with a mixture of 5×10^6 BCMA-expressing MOLP-8 multiple myeloma cells and 1×10^6 PBMC derived from a normal, healthy donor. […] The mice were administered Abs twice per week for a total of seven doses. Tumor growth was measured by caliper twice per week for the duration of the experiment.
Calculation of xenogenic tumor growth and inhibition: In order to determine tumor volume by external caliper, the greatest longitudinal diameter (length in mm) and the greatest transverse diameter (width in mm) were determined. Tumor volumes based on caliper measurements were calculated by the formula: Volume (mm^3)=(length× width^2)/2.

monkey BCMA-MMH = assay: SPR (Biacore 4000) binding kinetics at 25° C.
Sequence of monkey BCMA-MMH (as listed by the source): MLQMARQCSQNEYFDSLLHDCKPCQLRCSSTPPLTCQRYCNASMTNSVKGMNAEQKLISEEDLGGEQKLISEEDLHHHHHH
Experimental: (§2) The CM5 Biacore sensor surface was derivatized by amine coupling with a monoclonal mouse anti-human Fc antibody (GE, #BR-1008-39) to capture purified anti-BCMA mAbs and anti-BCMA×anti-CD3 bispecific mAbs. All Biacore binding studies were performed in a buffer composed of 0.01M HEPES pH 7.4, 0.15M NaCl, 3 mM EDTA, 0.05% v/v Surfactant P20 (HBS-ET running buffer). […] Antigen samples were then injected over the anti-BCMA and anti-BCMA×anti-CD3 bispecific mAbs captured surfaces at a flow rate of 30 μL/minute. Antibody-reagent association was monitored for 5 minutes while dissociation in HBS-ET running buffer was monitored for 10 minutes. All of the binding kinetics experiments were performed at 25° C. Kinetic association (ka) and dissociation (kd) rate constants were determined by fitting the real-time sensorgrams to a 1:1 binding model using Scrubber 2.0c curve fitting software. Binding dissociation equilibrium constants (KD) and dissociative half-lives (t1/2) were calculated from the kinetic rate constants as: […]

monkey BCMA-MFC = assay: SPR (Biacore 4000) binding kinetics at 25° C.
Sequence of monkey BCMA-MFC (as listed by the source): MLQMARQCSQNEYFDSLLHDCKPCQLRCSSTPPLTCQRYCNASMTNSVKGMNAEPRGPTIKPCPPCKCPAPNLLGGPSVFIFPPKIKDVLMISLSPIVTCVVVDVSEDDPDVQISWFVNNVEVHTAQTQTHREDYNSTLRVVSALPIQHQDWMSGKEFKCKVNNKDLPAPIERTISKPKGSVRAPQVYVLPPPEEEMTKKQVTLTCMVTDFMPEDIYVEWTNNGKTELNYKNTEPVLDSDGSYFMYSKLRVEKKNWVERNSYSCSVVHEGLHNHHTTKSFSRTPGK
Experimental: as §2

Substance: REGN5459: anti-BCMA×anti-CD3 bispecific antibody: mAb21581 BCMA heavy chain, mAb7221G20 CD3 heavy chain and common light chain; SEQ ID NOs 126, 128, 129
- Radiance [p/s/cm2^2/sr] 26 days post-implantation (mean ± SEM) [1]: 1.28E+06 ± 7.36E+05 p/s/cm2^2/sr
- Radiance [p/s/cm2^2/sr] 31 days post-implantation (mean ± SEM) [1]: 1.98E+06 ± 1.36E+06 p/s/cm2^2/sr
- Radiance [p/s/cm2^2/sr] 34 days post-implantation (mean ± SEM) [1]: 4.24E+06 ± 3.69E+06 p/s/cm2^2/sr
- Radiance [p/s/cm2^2/sr] 38 days post-implantation (mean ± SEM) [1]: 3.21E+06 ± 2.52E+06 p/s/cm2^2/sr
- Radiance [p/s/cm2^2/sr] 40 days post-implantation (mean ± SEM) [1]: 3.84E+06 ± 3.34E+06 p/s/cm2^2/sr
- Radiance [p/s/cm2^2/sr] 47 days post-implantation (mean ± SEM) [1]: 7.34E+05 ± 2.62E+04 p/s/cm2^2/sr
- Radiance [p/s/cm2^2/sr] 54 days post-implantation (mean ± SEM) [1]: 6.41E+05 ± 5.96E+04 p/s/cm2^2/sr
- Radiance [p/s/cm2^2/sr] 61 days post-implantation (mean ± SEM) [1]: 6.03E+05 ± 5.29E+04 p/s/cm2^2/sr
- tumor burden ([1]; three doses): reduced tumor burdens to background levels in the majority of animals
- Radiance [p/s/cm2^2/sr] 5 days post-implantation (mean ± SEM) ([1]; before first dose (day 21)): 5.09E+05 ± 3.56E+04 p/s/cm2^2/sr
- Radiance [p/s/cm2^2/sr] 11 days post-implantation (mean ± SEM) ([1]; before first dose (day 21)): 6.45E+05 ± 2.39E+04 p/s/cm2^2/sr
- Radiance [p/s/cm2^2/sr] 20 days post-implantation (mean ± SEM) ([1]; before first dose (day 21)): 2.13E+06 ± 1.69E+05 p/s/cm2^2/sr
- Average Tumor Size (mm3) ± SEM on Day 3 ([2]; 0.04 mg/kg): 11.7 ± 2.1 mm3
- Average Tumor Size (mm3) ± SEM on Day 7 ([2]; 0.04 mg/kg): 37.0 ± 5.7 mm3
- Average Tumor Size (mm3) ± SEM on Day 10 ([2]; 0.04 mg/kg): 104 ± 23.0 mm3
- Average Tumor Size (mm3) ± SEM on Day 14 ([2]; 0.04 mg/kg): 356.7 ± 84.6 mm3
- Average Tumor Size (mm3) ± SEM on Day 17 ([2]; 0.04 mg/kg): 645.6 ± 140.9 mm3
- Average Tumor Size (mm3) ± SEM on Day 21 ([2]; 0.04 mg/kg): 1442.4 ± 310.7 mm3
- Average Tumor Size (mm3) ± SEM on Day 23 ([2]; 0.04 mg/kg): 2124.4 ± 444.1 mm3
- Average Tumor Size (mm3) ± SEM on Day 28 ([2]; 0.04 mg/kg): 1939.3 ± 840.6 mm3
- Average Tumor Size (mm3) ± SEM on Day 31 ([2]; 0.04 mg/kg): 2688.7 ± 1176.6 mm3
- Average Tumor Size (mm3) ± SEM on Day 35 ([2]; 0.04 mg/kg): 612.1 ± 0 mm3
- Average Tumor Size (mm3) ± SEM on Day 3 ([2]; 0.4 mg/kg): 14.0 ± 1.6 mm3
- Average Tumor Size (mm3) ± SEM on Day 7 ([2]; 0.4 mg/kg): 0 ± 0 mm3
- Average Tumor Size (mm3) ± SEM on Day 10 ([2]; 0.4 mg/kg): 0 ± 0 mm3
- Average Tumor Size (mm3) ± SEM on Day 14 ([2]; 0.4 mg/kg): 0 ± 0 mm3
- Average Tumor Size (mm3) ± SEM on Day 17 ([2]; 0.4 mg/kg): 0 ± 0 mm3
- Average Tumor Size (mm3) ± SEM on Day 21 ([2]; 0.4 mg/kg): 0 ± 0 mm3
- Average Tumor Size (mm3) ± SEM on Day 23 ([2]; 0.4 mg/kg): 0 ± 0 mm3
- Average Tumor Size (mm3) ± SEM on Day 28 ([2]; 0.4 mg/kg): 0 ± 0 mm3
- Average Tumor Size (mm3) ± SEM on Day 31 ([2]; 0.4 mg/kg): 0 ± 0 mm3
- Average Tumor Size (mm3) ± SEM on Day 35 ([2]; 0.4 mg/kg): 0 ± 0 mm3
- Average Tumor Size (mm3) ± SEM on Day 42 ([2]; 0.4 mg/kg): 0 ± 0 mm3
- Average Tumor Size (mm3) ± SEM on Day 56 ([2]; 0.4 mg/kg): 0 ± 0 mm3
- Average Tumor Size (mm3) ± SEM on Day 3 ([2]; 4 mg/kg): 12.9 ± 1.3 mm3
- Average Tumor Size (mm3) ± SEM on Day 7 ([2]; 4 mg/kg): 0.6 ± 0.6 mm3
- Average Tumor Size (mm3) ± SEM on Day 10 ([2]; 4 mg/kg): 0 ± 0 mm3
- Average Tumor Size (mm3) ± SEM on Day 14 ([2]; 4 mg/kg): 0 ± 0 mm3
- Average Tumor Size (mm3) ± SEM on Day 17 ([2]; 4 mg/kg): 0 ± 0 mm3
- Average Tumor Size (mm3) ± SEM on Day 21 ([2]; 4 mg/kg): 0 ± 0 mm3
- Average Tumor Size (mm3) ± SEM on Day 23 ([2]; 4 mg/kg): 0 ± 0 mm3
- Average Tumor Size (mm3) ± SEM on Day 28 ([2]; 4 mg/kg): 1.9 ± 1.9 mm3
- Average Tumor Size (mm3) ± SEM on Day 31 ([2]; 4 mg/kg): 3.8 ± 3.0 mm3
- Average Tumor Size (mm3) ± SEM on Day 35 ([2]; 4 mg/kg): 9.3 ± 7.5 mm3
- Average Tumor Size (mm3) ± SEM on Day 42 ([2]; 4 mg/kg): 12.8 ± 12.8 mm3
- Average Tumor Size (mm3) ± SEM on Day 56 ([2]; 4 mg/kg): 17.2 ± 17.2 mm3
- ka (monkey BCMA-MMH): 223000 M⁻¹ s⁻¹
- kd (monkey BCMA-MMH): 0.00864 s⁻¹
- ka (monkey BCMA-MFC): 482000 M⁻¹ s⁻¹
- kd (monkey BCMA-MFC): 7.15e-05 s⁻¹
